According to patent publication US20250221964A1, “Substituted Isoxazoles as Selective Nav1.7 Inhibitors for Pain Treatment and Method of Pain Treatment” (Board of Regents, The University of Texas System, priority 2021, published 2025):
Like-named read-outs stand apart in the source and are kept apart here.

Columns and labels:
hNav1.7 = hNav1.7 (Homo sapiens, UniProt Q15858); test: Nav1.7 in vitro inhibition assay; format: cell-based; details: for subtype selectivity (Nav1.7 vs. Nav1.5): in words
hNav1.5 = hNav1.5 (Homo sapiens, UniProt Q14524); test: Nav1.5 in vitro inhibition assay; format: cell-based; details: in vitro testing
[1] = tested on: mouse automated formalin model; test: mouse automated formalin test; format: in vivo; details: 135 mg/kg p.o.
Protocol: (§1) Compound 100 was administered using the mouse automated formalin model at a dosage of 135 mg/kg p.o. Dosage was selected based upon projection from mouse exposure at 5 mg/kg.

[2] = mouse exposure / pharmacokinetics in formalin study (plasma, brain); format: in vivo; details: for concentration at 0.25 hr: pre-tx time 0.25 hr, unbound
Protocol: as §1

[3] = ADME assays (solubility, CYP inhibition, in vitro metabolism); details: in words
[4] = tested on: muscarinic receptors in the rat cerebral cortex; details: cited from earlier work
[5] = in vitro testing, read-out: potency against Nav1.7
[6] = 135 mg/kg p.o., 0.25 hr, versus FI IC50
[7] = 135 mg/kg p.o., 0.25 hr, versus SI IC50

hNav1.7, sequence (Q15858 whole entry): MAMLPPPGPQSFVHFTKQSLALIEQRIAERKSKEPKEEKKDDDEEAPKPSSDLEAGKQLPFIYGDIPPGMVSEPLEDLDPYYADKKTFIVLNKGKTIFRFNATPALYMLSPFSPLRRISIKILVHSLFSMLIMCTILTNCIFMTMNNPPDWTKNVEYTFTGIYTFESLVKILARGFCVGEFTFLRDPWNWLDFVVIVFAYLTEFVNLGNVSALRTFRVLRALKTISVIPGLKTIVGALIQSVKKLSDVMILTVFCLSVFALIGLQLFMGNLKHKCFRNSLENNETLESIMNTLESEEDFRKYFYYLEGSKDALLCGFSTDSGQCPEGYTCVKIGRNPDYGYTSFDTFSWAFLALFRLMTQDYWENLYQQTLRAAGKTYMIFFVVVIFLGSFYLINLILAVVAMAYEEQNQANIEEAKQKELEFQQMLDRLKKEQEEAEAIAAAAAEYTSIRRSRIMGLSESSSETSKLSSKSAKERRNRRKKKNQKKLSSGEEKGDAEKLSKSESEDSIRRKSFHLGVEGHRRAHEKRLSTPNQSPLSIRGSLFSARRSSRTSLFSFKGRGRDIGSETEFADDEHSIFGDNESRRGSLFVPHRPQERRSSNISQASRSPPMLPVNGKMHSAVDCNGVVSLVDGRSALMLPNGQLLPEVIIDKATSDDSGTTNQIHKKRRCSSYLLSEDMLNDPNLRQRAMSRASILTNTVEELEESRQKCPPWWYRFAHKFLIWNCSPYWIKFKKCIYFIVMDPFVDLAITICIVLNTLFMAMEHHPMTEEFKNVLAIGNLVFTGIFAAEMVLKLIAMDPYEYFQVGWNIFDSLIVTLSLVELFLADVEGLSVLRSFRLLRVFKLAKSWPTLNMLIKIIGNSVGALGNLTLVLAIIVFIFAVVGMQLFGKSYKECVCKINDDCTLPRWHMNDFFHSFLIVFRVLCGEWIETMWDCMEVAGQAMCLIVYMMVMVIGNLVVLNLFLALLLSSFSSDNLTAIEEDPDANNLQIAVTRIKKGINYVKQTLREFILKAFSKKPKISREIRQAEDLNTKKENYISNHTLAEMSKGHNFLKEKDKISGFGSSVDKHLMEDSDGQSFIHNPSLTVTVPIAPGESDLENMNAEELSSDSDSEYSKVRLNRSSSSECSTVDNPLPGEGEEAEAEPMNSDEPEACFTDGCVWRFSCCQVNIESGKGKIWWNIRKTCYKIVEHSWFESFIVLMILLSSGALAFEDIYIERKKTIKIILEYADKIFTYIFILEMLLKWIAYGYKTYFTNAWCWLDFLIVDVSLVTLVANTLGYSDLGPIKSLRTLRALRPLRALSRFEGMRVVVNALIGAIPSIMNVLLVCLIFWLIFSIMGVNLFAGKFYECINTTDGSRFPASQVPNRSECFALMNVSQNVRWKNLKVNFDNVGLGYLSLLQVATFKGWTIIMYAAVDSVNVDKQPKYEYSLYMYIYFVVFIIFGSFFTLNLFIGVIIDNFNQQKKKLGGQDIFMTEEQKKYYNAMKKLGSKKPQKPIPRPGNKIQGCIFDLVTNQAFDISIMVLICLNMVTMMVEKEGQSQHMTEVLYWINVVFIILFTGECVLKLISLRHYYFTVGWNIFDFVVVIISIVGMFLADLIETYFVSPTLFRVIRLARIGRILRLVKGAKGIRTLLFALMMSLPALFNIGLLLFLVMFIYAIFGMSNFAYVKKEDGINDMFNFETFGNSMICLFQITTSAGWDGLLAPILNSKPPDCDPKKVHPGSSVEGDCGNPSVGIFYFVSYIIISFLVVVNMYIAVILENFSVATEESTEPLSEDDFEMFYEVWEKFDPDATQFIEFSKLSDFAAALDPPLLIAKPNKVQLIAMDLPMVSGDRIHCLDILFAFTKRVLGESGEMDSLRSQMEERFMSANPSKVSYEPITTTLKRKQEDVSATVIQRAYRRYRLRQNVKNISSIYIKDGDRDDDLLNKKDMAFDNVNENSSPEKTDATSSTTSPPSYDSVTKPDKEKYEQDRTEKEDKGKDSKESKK
hNav1.5, sequence (Q14524 whole entry): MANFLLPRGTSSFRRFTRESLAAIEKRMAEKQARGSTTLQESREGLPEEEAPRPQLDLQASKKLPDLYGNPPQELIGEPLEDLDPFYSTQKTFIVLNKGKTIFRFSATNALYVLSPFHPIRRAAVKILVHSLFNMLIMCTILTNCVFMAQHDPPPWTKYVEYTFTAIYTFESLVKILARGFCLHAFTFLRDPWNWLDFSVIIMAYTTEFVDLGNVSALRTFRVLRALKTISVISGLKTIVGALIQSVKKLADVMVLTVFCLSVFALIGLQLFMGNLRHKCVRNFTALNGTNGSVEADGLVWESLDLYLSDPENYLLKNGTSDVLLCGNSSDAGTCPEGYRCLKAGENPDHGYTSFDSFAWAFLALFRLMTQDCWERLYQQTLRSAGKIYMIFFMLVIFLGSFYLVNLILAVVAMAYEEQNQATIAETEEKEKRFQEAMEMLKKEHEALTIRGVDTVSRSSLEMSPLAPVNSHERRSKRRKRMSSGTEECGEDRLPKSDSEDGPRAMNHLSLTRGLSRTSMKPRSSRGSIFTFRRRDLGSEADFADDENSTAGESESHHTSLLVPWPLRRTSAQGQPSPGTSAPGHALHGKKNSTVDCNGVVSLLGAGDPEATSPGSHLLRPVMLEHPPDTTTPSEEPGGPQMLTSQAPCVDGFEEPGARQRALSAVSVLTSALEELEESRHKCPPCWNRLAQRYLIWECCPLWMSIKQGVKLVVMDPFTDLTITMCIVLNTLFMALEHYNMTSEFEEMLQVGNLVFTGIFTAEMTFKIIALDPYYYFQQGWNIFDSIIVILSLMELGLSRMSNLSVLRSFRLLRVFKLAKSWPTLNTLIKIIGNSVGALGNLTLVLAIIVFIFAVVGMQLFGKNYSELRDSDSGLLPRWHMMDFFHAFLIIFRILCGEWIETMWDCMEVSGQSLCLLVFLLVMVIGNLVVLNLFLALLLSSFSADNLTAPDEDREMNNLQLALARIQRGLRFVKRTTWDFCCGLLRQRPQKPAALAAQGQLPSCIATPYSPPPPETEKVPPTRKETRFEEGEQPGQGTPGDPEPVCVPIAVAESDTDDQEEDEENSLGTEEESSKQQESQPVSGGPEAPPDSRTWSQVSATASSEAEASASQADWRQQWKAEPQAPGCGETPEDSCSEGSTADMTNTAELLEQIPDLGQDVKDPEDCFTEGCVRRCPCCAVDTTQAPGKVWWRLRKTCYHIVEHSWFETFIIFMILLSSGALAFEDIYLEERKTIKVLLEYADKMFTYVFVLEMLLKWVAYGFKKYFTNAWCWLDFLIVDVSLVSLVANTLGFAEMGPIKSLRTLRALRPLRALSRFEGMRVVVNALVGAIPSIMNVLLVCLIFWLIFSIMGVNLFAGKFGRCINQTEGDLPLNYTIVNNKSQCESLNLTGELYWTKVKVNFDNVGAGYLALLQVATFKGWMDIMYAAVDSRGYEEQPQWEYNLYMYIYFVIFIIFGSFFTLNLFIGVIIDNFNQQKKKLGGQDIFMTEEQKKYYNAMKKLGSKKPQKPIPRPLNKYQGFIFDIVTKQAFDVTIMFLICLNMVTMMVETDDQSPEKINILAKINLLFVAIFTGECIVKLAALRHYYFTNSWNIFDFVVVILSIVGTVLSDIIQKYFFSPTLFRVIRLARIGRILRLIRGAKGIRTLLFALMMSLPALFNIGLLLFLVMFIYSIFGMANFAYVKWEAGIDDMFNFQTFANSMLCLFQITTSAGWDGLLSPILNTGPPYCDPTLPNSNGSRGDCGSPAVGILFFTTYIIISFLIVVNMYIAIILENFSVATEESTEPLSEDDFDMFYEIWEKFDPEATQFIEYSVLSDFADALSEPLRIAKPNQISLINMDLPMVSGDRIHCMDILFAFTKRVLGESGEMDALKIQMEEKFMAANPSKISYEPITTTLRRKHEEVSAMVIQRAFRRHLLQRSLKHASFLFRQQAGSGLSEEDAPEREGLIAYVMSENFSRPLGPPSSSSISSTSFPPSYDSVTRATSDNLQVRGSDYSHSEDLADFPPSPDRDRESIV

## CC(C)(CO)CCCNC(=O)c1noc(-c2ccccc2)c1-c1ccccc1 [Compound 106]
hNav1.7; [5]
  IC50: 60 nM
hNav1.7
  subtype selectivity (Nav1.7 vs. Nav1.5): remained poor
hNav1.5; read-out: Nav1.5 IC50
  IC50: 180 nM

## CC(C)(CO)CCCNC(=O)c1cc(-c2ccccc2)on1 [Compound 100]
hNav1.7; FI, read-out: h1.7 IC50 (FI)
  IC50: 2020 nM
hNav1.7; [5]
  IC50: 570 nM
hNav1.7
  subtype selectivity (Nav1.7 vs. Nav1.5): poor selectivity
[1]
  reduction in late-phase pain-induced reactions: 31.4%
[1]; pre-tx time 0.25 hr
  Percent Reversal in Late Phase Formalin: 31.4 ± 5.1%
[2]; [6]
  Brain TER (FI): 0.2 (FI)
  Plasma TER (FI): 0.1 (FI)
[2]; [7]
  Brain TER (SI): 1.8 (SI)
  Plasma TER (SI): 1.2 (SI)
[2]; brain, po, mouse, 135 mg/kg p.o., read-out: Mean Brain, u
  concentration at 0.25 hr: 414 nM
[2]; in vivo, po, mouse
  Tmax: 15 min
  half-life: 66 min
[2]; plasma, po, mouse, 135 mg/kg p.o., read-out: Mean plasma, u
  concentration at 0.25 hr: 282 nM
hNav1.5; read-out: Nav1.5 potency
  IC50: 1900 nM
[3]
  compound profiling in ADME assays: promising

## Cc1scc2c1N(C(=O)CN1CCN(C)CC1)c1ccccc1NC2=O [(−)-isomer, telenzepine]
[4]
  fold less active than the (+)-isomer: 500 ×

## CN(CCCC(C)(C)CO)C(=O)c1cc(-c2ccccc2)on1 [Compound 119]
hNav1.7
  subtype selectivity (Nav1.7 vs. Nav1.5): improved

## Cc1ccc(F)cc1-c1c(C(=O)NCCCC(C)(C)CO)noc1-c1ccccc1 [Compound 130]
hNav1.7
  subtype selectivity (Nav1.7 vs. Nav1.5): improved
